Experimental data as given in paper PMC12389234, “Bioactive Potential of Nepenthes miranda Flower Extracts: Antidiabetic, Anti-Skin Aging, Cytotoxic, and Dihydroorotase-Inhibitory Activities” (Plants, 2025).
pIC50: −log10 of the molar value.

Target: T1, porcine pancreatic elastase (Sus scrofa, UniProt P00772)
T1 construct: gene CELA1; native mature enzyme from porcine pancreas (commercial, Sigma-Aldrich)
Experiment: spectrophotometric, p-nitroanilide release, […] nm
Format: biochemical

T1 sequence (P00772 27-266): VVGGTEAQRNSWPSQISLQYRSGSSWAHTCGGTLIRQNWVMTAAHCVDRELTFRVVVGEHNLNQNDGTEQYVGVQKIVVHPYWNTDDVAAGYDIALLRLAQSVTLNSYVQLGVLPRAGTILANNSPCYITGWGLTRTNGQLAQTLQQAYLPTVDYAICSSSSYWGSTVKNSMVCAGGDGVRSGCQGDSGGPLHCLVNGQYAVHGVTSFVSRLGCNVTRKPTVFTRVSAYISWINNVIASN

O=C(O[C@@H]1Cc2c(O)cc(O)cc2O[C@@H]1c1cc(O)c(O)c(O)c1)c1cc(O)c(O)c(O)c1 [EGCG]
pIC50: 5.03
